Experimental data as given in US8969542B2, “HPV polyepitope constructs and uses thereof” (priority 2007, dated 2015).
Where a SMILES comes first, the peptide text is derived from it. Where no end group is shown, it is not given here.

How the values were obtained:
[1] = tested on: CD8+ spleen cells of HLA transgenic mice (HLA-A01/Kb, F1 HLA-A02/KbxBalb/c, HLA-A11/Kb, HLA-A24/Kb); assay: Immunogenicity after HPV DNA construct immunization, direct ex vivo IFNγ ELISPOT; format: in vivo, mouse; settings: for ICCG6137 SFC/10^6 cells Delta / ICCG6138 SFC/10^6 cells Delta: HLA transgenic mice (HLA-A01/A02/A11/A24), CD8+ cells restimulated with WT peptide 10 μg/mL; for Delta SFC/10^6 cells: HLA-A24 epitopes, HLA-A24/Kb mice, median of mouse pools
Protocol: The immunogenicity of HPV HLA class I-restricted epitopes encoded in the DNA constructs was tested in the relevant HLA transgenic mice. […] To ensure an equal distribution of mice between different groups, a randomisation procedure based on body weight was performed. Female and male mice (age between 8 and 24 weeks) were ranked by body weight, extreme light or heavy animals were excluded. The remaining animals were grouped by sequentially assigning animals for the 2 experiments.
Mice were pre-treated with cardiotoxin (Sigma, C9759) on day −4 by bilateral intramuscular injection of 100 μl (2×50 μl) of a 10 μM cardiotoxin solution. Four days later, all mice were immunised with 100 μg HPV-DNA plasmid (diluted to 1 mg/ml in PBS) by bilateral injection of 50 μg in the m. tibialis anterior. […]
(§1) Mice were euthanized and spleen cells (SPC) were isolated 13 days after immunization. […] Spleen cells of DNA- and peptide-immunized HLA-A11/Kb mice were analyzed individually. SPC of all negative control mice were pooled per 2 mice, resulting in 3 data points for each peptide tested.
(§2) A direct ex vivo IFNγ ELISPOT assay was used as surrogate CTL readout. Basically, purified CD8+ cells were incubated with the individual HPV-specific HLA-restricted peptides (10 μg/mL) loaded on the appropriate antigen presenting cells (APC), in anti-mouse IFNγ antibody-coated ELISPOT plates. […] After 20 h incubation, IFNγ-producing cells were visualized by further developing the plates with biotinylated anti-mouse IFNγ antibody, streptavidin-HRP and AEC as substrate.
(§3) Some of the CTL epitopes included in the DNA constructs are analoged sequences of the wild type viral epitopes. For these particular epitopes, only the wild type sequences were used as in vitro stimulus for CTL readout.

[2] = tested on: CD8+ spleen cells of HLA transgenic mice (HLA-A01/Kb, F1 HLA-A02/KbxBalb/c, HLA-A11/Kb, HLA-A24/Kb); assay: Immunogenicity after peptide pool/IFA immunization, direct ex vivo IFNγ ELISPOT; format: in vivo, mouse; settings: for Peptide Pool SFC/10^6 cells Delta: HLA transgenic mice (HLA-A01/A02/A11/A24), CD8+ cells restimulated with WT peptide 10 μg/mL
Protocol: CTL binding epitopes were evaluated for their immunogenicity in different HLA transgenic mice. To this, a single immunization with CTL peptide pools together with a common HTL epitope emulsified in IFA was performed and up to 14 days later, CD8+ spleen cells were isolated and evaluated for epitope specificity using a direct ex vivo IFNγ ELISPOT assay.
Peptides were dissolved in DMSO at a concentration of 10 mg/mL. For each of the 4 DNA constructs, the corresponding HLA-restricted peptides were pooled per HLA type (5 to 7 CTL peptides/pool). A known HTL peptide ([…]) was added and the peptide pools were diluted in PBS to the required peptide concentration (i.e. 25 μg of each CTL peptide and 120 μg HTL peptide in 50 μl). After adding an equal volume of IFA (Pierce, lot DG56079), the mixture was emulsified by forcing it through a small orifice. Mice were immunized subcutaneously at the base of the tail with 50 μl peptide/IFA mixture.
As negative control for the peptide-immunized mice, 18 mice (in total) were injected with a PBS/IFA mixture.
as §1, §2, §3

HLA A3002 = HLA A3002 (Homo sapiens, UniProt P04439, D101N/D140H/D185E/E176R/F33S/G80R/H175R/K168Q/Q94H/R138E/R41S/V100E); assay: HLA class I competition binding assay using soluble HLA
HLA A2402 = HLA A2402 (Homo sapiens, UniProt P04439, D101N/D140Y/D185E/E176V/E190D/F33S/G103R/G107R/I119L/I121M/I306V/K335N/L105A/L180Q/L300P/N151K/N90K/Q86E/Q94H/R106L/R138H/R89G/T104I/T345S/V100E/W191G/Y123F); assay: as above
HLA A0301 = biological target: T1, HLA A0301 (Homo sapiens, UniProt P04439); assay: as above
T1 construct: endogenous in cells

HLA A3101 = HLA A3101 (Homo sapiens, UniProt P04439, A270S/D185E/E176V/E277Q/F33T/G231S/G80R/H175R/I121M/I218V/I322F/K168Q/L300P/L318F/M331R/P217A/Q94H/R138Q/T323A/T345S/T97I/V358M); assay: as above
HLA A6801 = HLA A6801 (Homo sapiens, UniProt P04439, A269V/D185E/E176V/E277Q/E87N/F33Y/G231S/I121M/I166T/I218V/L180W/L300P/L318F/N151K/P208A/P217A/Q86R/R169H/T345S); assay: as above
HLA A2902 = HLA A2902 (Homo sapiens, UniProt P04439, A270S/D101N/D185E/E176V/E277Q/E87Q/F33T/G231S/H175R/I121M/I218V/I322F/K168Q/L300P/L318F/M331R/P208A/P217A/Q86L/T323A/T345S/V100A/V358M); assay: as above
HLA A2302 = HLA A2302 (Homo sapiens, UniProt P04439, D101N/D140Y/D185E/E176V/E190D/F33S/G103R/G107R/H175R/I119L/I121M/I306V/K168Q/K335N/L105A/L180W/L300P/N151K/N90K/P307H/Q86E/Q94H/R106L/R138H/R89G/T104I/T345S/V100E/W191G/Y123F); assay: as above
HLA A3301 = HLA A3301 (Homo sapiens, UniProt P04439, A270S/D185E/E176V/E277Q/E87N/F33T/G231S/H175R/I121M/I218V/I322F/K168Q/K210R/L300P/L318F/M331R/P217A/Q86R/Q94H/R138Q/T323A/T345S/T97I/V358M/Y195H); assay: as above
[3] = immunization with DNA construct ICCG 6137, IFNγ ELISPOT
[4] = immunization with DNA construct ICCG 6138, IFNγ ELISPOT
[5] = immunization with pool of peptides emulsified in IFA, IFNγ ELISPOT

| Compound | IC50 (HLA A3002) | IC50 (HLA A2402) | IC50 (HLA A2902) | IC50 (HLA A2302) | further results |
| --- | --- | --- | --- | --- | --- |
| 154 (FYSRIRELRY; Human papilloma virus) [compound 154] |  |  |  |  | ICCG6137 SFC/10^6 cells Delta [1, 3]: 45 SFC/10^6 cells; ICCG6137 SFC/10^6 cells Ratio ([1]; immunization with DNA construct ICCG 6137, HLA transgenic mice, response ratio, WT peptide 10 μg/mL, IFNγ ELISPOT): 2.0; ICCG6138 SFC/10^6 cells Delta [1, 4]: 33 SFC/10^6 cells; ICCG6138 SFC/10^6 cells Ratio ([1]; immunization with DNA construct ICCG 6138, HLA transgenic mice, response ratio, WT peptide 10 μg/mL, IFNγ ELISPOT): 1.3; Peptide Pool SFC/10^6 cells Delta [2, 5]: 165 SFC/10^6 cells; Peptide Pool SFC/10^6 cells Ratio ([2]; immunization with pool of peptides emulsified in IFA, HLA transgenic mice, response ratio, WT peptide 10 μg/mL, IFNγ ELISPOT): 7.3 |
| CC[C@H](C)[C@H](NC(=O)[C@H](Cc1ccc(O)cc1)NC(=O)[C@H](Cc1ccccc1)NC(=O)[C@@H](NC(=O)[C@H](CC(N)=O)NC(=O)[C@H](Cc1ccc(O)cc1)NC(=O)CN)[C@@H](C)O)C(=O)N[C@@H](CCC(=O)O)C(=O)N[C@@H](Cc1ccccc1)C(=O)O [compound 41] | 1260 nM | 16 nM |  |  |  |
| CSCC[C@H](N)C(=O)N[C@@H](Cc1ccc(O)cc1)C(=O)N[C@H](C(=O)N[C@@H](CS)C(=O)N[C@@H](CS)C(=O)N[C@@H](Cc1c[nH]cn1)C(=O)N[C@H](C(=O)N1CCC[C@H]1C(=O)N[C@@H](CC(C)C)C(=O)O)C(C)C)C(C)C [compound 42] (H-MYVCCHVPL-OH; N-terminus and C-terminus assumed) |  |  |  |  | Delta SFC/10^6 cells ([1]; DNA construct ICCG6149): 1 SFC/10^6 cells; Delta SFC/10^6 cells ([1]; DNA construct ICCG6150): 1 SFC/10^6 cells; Delta SFC/10^6 cells ([2]; HLA-A24 epitopes, HLA-A24/Kb mice, Peptide Pool, median of mouse pools): 1 SFC/10^6 cells |
| CC(C)C[C@H](NC(=O)[C@H](CC(C)C)NC(=O)[C@@H](NC(=O)[C@H](CS)NC(=O)[C@H](Cc1ccccc1)NC(=O)[C@H](CS)NC(=O)[C@H](CC(C)C)NC(=O)[C@H](CC(C)C)NC(=O)[C@@H](N)Cc1ccccc1)C(C)C)C(=O)O [compound 51] (H-FLLCFCVLL-OH; N-terminus and C-terminus assumed) |  |  |  |  | ICCG6137 SFC/10^6 cells Delta [1, 3]: 8 SFC/10^6 cells; ICCG6138 SFC/10^6 cells Delta [1, 4]: 8 SFC/10^6 cells; Peptide Pool SFC/10^6 cells Delta [2, 5]: 195 SFC/10^6 cells |
| CC(C)C[C@H](NC(=O)[C@H](CS)NC(=O)[C@@H](NC(=O)[C@H](CO)NC(=O)[C@H](Cc1ccccc1)NC(=O)[C@H](CS)NC(=O)[C@H](CC(C)C)NC(=O)[C@H](CC(C)C)NC(=O)[C@@H](N)Cc1ccccc1)C(C)C)C(=O)O [compound 75] (H-FLLCFSVCL-OH; N-terminus and C-terminus assumed) |  |  |  |  | ICCG6137 SFC/10^6 cells Delta [1, 3]: 1 SFC/10^6 cells; ICCG6138 SFC/10^6 cells Delta [1, 4]: 1 SFC/10^6 cells; Peptide Pool SFC/10^6 cells Delta [2, 5]: 75 SFC/10^6 cells |
| ATLQDIVLH [compound 38] |  |  |  |  | IC50 (HLA A0301): 211 nM; IC50 (HLA A3101): 543 nM |
| DSVYGDTLER [compound 37] |  |  |  |  | IC50 (HLA A0301): 193 nM; IC50 (HLA A3101): 246 nM; IC50 (HLA A6801): 44 nM |
| FYSKVSEFRW [compound 65] | 1360 nM | 4.5 nM | 1.78 µM | 8.8 nM |  |
| FYSRIRELRF [compound 88] | > 20000 nM | 3.2 nM |  | 1 nM |  |
| HYTNWKFIF [compound 63] | 4850 nM | 8.5 nM | 0.433 µM | 16 nM |  |
| KSLFGMSLMK [compound 15] |  |  |  |  | IC50 (HLA A0301): 3.9 nM; IC50 (HLA A3101): 230 nM; IC50 (HLA A6801): 887 nM |
| LSSALEIPY [compound 46] | 175 nM |  |  |  |  |
| LYGVSFSEL [compound 18] | > 20000 nM | 3.1 nM | > 20 µM | 7.2 nM |  |
| LYNLLIRCF [compound 44] |  |  | > 20 µM | 10 nM |  |
| NTELYNLLI [compound 70] | > 20000 nM |  | > 20 µM |  |  |
| PYLHSRLVVF [compound 61] |  | 38.7 nM | 4.37 µM | 2.8 nM |  |
| QVVPAYNISK [compound 35] |  |  |  |  | IC50 (HLA A0301): 308 nM |

| Compound | IC50 (HLA A3002) | IC50 (HLA A2402) | IC50 (HLA A2902) | IC50 (HLA A2302) | further results |
| --- | --- | --- | --- | --- | --- |
| RQMNMSQWIK [compound 79] |  |  |  |  | IC50 (HLA A3101): 45 nM; IC50 (HLA A6801): 2560 nM |
| RTEVYQFAFR [compound 82] |  |  |  |  | IC50 (HLA A3101): 8 nM; IC50 (HLA A3301): 696 nM; IC50 (HLA A6801): 439 nM |
| STAAALYWYK [compound 13] |  |  |  |  | IC50 (HLA A3301): 128 nM |
| STVSVGTAK [compound 34] |  |  |  |  | IC50 (HLA A3301): > 20000 nM |
| SYFGMSFIHF [compound 39] | 1540 nM | 17.5 nM |  |  |  |
| TVSATQLVK [compound 33] |  |  |  |  | IC50 (HLA A3101): 6140 nM |
| VFTFPHAFPF [compound 84] | > 20000 nM | 90.4 nM | 0.057 µM | 15.9 nM |  |
| VFTFPNPFPF [compound 62] | > 20000 nM |  | 0.603 µM | 12 nM |  |
| VTTRYPLLR [compound 81] |  |  |  |  | IC50 (HLA A0301): 158 nM; IC50 (HLA A3301): > 20000 nM; IC50 (HLA A6801): 3150 nM |
| VVFIYIPLF [compound 64] | 268 nM | 276 nM | 0.302 µM |  |  |
| VYDFAFRDLCI [compound 20] | > 20000 nM | 22 nM | > 20 µM | 8.9 nM |  |
| VYGTTLEKL [compound 66] | 1240 nM | 26 nM | > 20 µM | 8.2 nM |  |
| VYQFAFKDL [compound 87] |  | 4 nM | > 20 µM | 1.1 nM |  |
| VYVCAFAWLL [compound 86] | > 20000 nM | 8.4 nM | 2.35 µM | 8.1 nM |  |
| VYVFCFLLPM [compound 43] | > 20000 nM | 178 nM | 5.28 µM | 57 nM |  |
| YYITETGIW [compound 85] | > 20000 nM | 8.5 nM | > 20 µM | 2 nM |  |
| YYMTDAGTW [compound 40] |  | 3.2 nM | 3.41 µM |  |  |
